Reference: PMC4941645, “Oxidative Stress Induced by Pt(IV) Pro-drugs Based on the Cisplatin Scaffold and Indole Carboxylic Acids in Axial Position” (Scientific Reports, 2016)

Assays:
[1] = test system: panel of human tumor cell lines (BxPC3, HCT-15, MCF-7, A431, A549, A375); assay: MTT cytotoxicity, mean over panel of human tumor cell lines; assay type: cell-based; details: for IC50: mean over the six cell lines of Table 1, 72 h
Method: (§1) The cytotoxic activity of the complexes and of the uncoordinated ligands was evaluated by the MTT test on a panel of human tumor cell lines containing examples of pancreatic (BxPC3), colorectal (HCT-15), breast (MCF-7), cervical (A431), and lung (A549) cancers as well as of melanoma (A375). For comparison purposes, the cytotoxicity of cisplatin was evaluated under the same experimental conditions.
(§2) The growth inhibitory effect toward tumor cells was evaluated by means of the MTT assay. Briefly, (3–8) × 10^3 cells/well, dependent upon the growth characteristics of the cell line, were seeded in 96-well microplates in growth medium (100 μL). After 24 h, the medium was removed and replaced with fresh medium containing the compound to be studied at the appropriate concentration. Triplicate cultures were established for each treatment. After 24, 48, or 72 h, each well was treated with 10 μL of a 5 mg/mL MTT saline solution and, after 5 h of incubation, 100 μL of a sodium dodecylsulfate (SDS) solution in 0.01 M HCl was added. After an overnight incubation, cell growth inhibition was detected by measuring the absorbance of each well at 570 nm using a Bio-Rad 680 microplate reader. The mean absorbance for each drug dose was expressed as a percentage of the control, untreated well absorbance and plotted vs drug concentration. The IC50 values, the drug concentrations that decrease the mean absorbance at 570 nm to 50% of that of untreated control wells, were calculated from the dose–response curves with the four-parameter logistic model (4PL). The final value is the mean ± S.D. of at least three independent experiments performed in triplicate.

[2] = test system: A549 lung carcinoma cells; assay: cells; details: A549, 72 h
Method: as §1
(§3) Cisplatin was dissolved in 0.9% NaCl solution.
(§4) Human breast (MCF-7), colon (HCT-15), lung (A549) and pancreatic (BxPC3) carcinoma cell lines together with melanoma (A375) cells were obtained from American Type Culture Collection (ATCC, Rockville, MD). The human ovarian cancer cell line 2008 and its cisplatin resistant variant, C13*, were kindly provided by Prof. G. Marverti (Department of Biomedical Science of Modena University, Italy). Human cervical carcinoma (A431) cells were kindly provided by Prof. F. Zunino (Division of Experimental Oncology B, Istituto Nazionale dei Tumori, Milan, Italy). Cell lines were maintained in the logarithmic phase at 37 °C in a 5% carbon dioxide atmosphere using the following culture media containing 10% fetal calf serum (Euroclone, Milan, Italy), antibiotics (50 units/mL penicillin and 50 μg/mL streptomycin) and 2 mM L-glutamine: (i) RPMI-1640 medium (Euroclone) for 2008, C13*, MCF-7, HCT-15, A431 and BxPC3 cells, (ii) F-12 HAM’S (Sigma Chemical Co.) for A549 cells, iii) DMEM (Sigma Chemical Co.) for A375 cells.
as §2

[3] = test system: A431 cervical carcinoma cells; assay: MTT cytotoxicity test, A431; assay type: cell-based, human; details: ± S.D.
Method: as §1, §3, §4, §2

[4] = test system: HCT-15 colon carcinoma cells; assay: MTT cytotoxicity test, HCT-15; assay type: cell-based, human; details: HCT-15, 72 h, MTT, ± S.D.
Method: as §1, §3, §4, §2

[5] = test system: BxPC3 pancreatic carcinoma cells; assay: MTT cytotoxicity test, BxPC3; assay type: cell-based, human; details: BxPC3, 72 h, MTT, ± S.D.
Method: as §1, §3, §4, §2

A375 cells = assay: ROS production (CM-H2DCFDA probe); assay type: cell-based, human; details: A375, 12.5 μM, compared with antimycin positive control
Method: ROS are products of normal cell metabolism but their levels can be increased upon exposure to toxic agents or interference with the cellular redox network. […] Consequently, cellular ROS levels upon treatment with equal doses (12.5 μM) of the different platinum complexes were monitored in A375 cancer cells by using the peroxide-sensitive fluorescent probe CM-H2DCFDA (5-(and-6)-chloromethyl-2′,7′-dichlorodihydrofluorescein diacetate, acetyl ester). Antimycin, a classical inhibitor of the mitochondrial respiratory chain at the level of complex III, was used as a positive control.
Figure 8 ROS production in A375 cells. Cells were preincubated in PBS/10 mM glucose medium for 20 min at 37 °C in the presence of 10 μM CM-DCFDA and then treated with equimolar doses (12.5 μM) of indole propionic acid Pt(IV) derivatives (panel A) or indole acetic acid Pt(IV) derivatives (panel B). The fluorescence of DCF was measured.
The production of ROS was measured in A375 cells (10^4 per well) grown for 24 h in 96-well plates in DMEM medium without phenol red (Sigma Chemical Co.). Cells were then washed with PBS and loaded with 10 μM 5-(and-6)-chloromethyl-2′,7′-dichlorodihydrofluorescein diacetate, acetyl ester (CM–H2DCFDA) (Molecular Probes-Invitrogen) for 25 min in the dark. Afterwards, cells were washed with PBS and incubated with increasing concentrations of the tested complexes. The fluorescence increase was estimated with a plate reader (Fluoroskan Ascent FL, Labsystem, Finland) at 485 (excitation) and 527 nm (emission). Antimycin (3 μM, Sigma Chemical Co.), a potent inhibitor of Complex III in the electron transport chain, was used as positive control.

[6] = test system: MCF-7 breast carcinoma cells; assay: MTT cytotoxicity test, MCF-7; assay type: cell-based, human; details: ± S.D.
Method: as §1, §3, §4, §2

A375 melanoma cells [7] = assay: MTT cytotoxicity test, A375; assay type: cell-based, human; details: ± S.D.
Method: as §1, §3, §4, §2

[8] = test system: C13* cisplatin-resistant ovarian cancer cells; assay: MTT cytotoxicity test, cisplatin-resistant C13*; assay type: cell-based, human; details: for IC50: C13* cisplatin-resistant, 72 h, MTT, ± S.D.; for RF (resistance factor): IC50 resistant (C13*) / parent line (2008)
Method: The cytotoxic properties of the complexes were also evaluated in a pair of tumor cell lines suitably selected for their sensitivity and resistance to cisplatin (adenocarcinoma cells 2008/C13^*). Cross-resistance profiles were evaluated by means of the resistance factor (RF), defined as the ratio between IC50 values calculated for the resistant cells and those obtained with the sensitive ones (Table 2). The phenomenon of cisplatin resistance is multifactorial in nature.
as §3, §4, §2

[9] = Log P octanol/water, shake flask method with ICP-MS; assay type: physicochemical; details: n-octanol / 0.9% NaCl water, Pt by ICP-MS
Method: Partition coefficients (logP values) for octanol/water partition were determined in order to examine whether a correlation exists between lipophilicity and accumulation into cells. The log P values obtained (Table 3) give the trend in lipophilicity as mono indole acid complex < succinate complex < acetate complex < bis indole acid complex < benzoate complex for both the IAA and the IPA series.
The logP values of the Pt(IV) compounds were determined using the shake flask method. The respective Pt(IV) complex was dissolved in 0.9% NaCl (w/v) ultrapure water (presaturated with n-octanol). The solutions were sonicated and filtered to remove undissolved Pt(IV) compounds. The initial Pt concentrations were determined by ICP-MS. Subsequently, the Pt(IV) solutions were added to an equal volume of n-octanol (presaturated with 0.9% NaCl (w/v) ultrapure water). The heterogeneous mixtures were shaken vigorously for 30 min before centrifuging at 4000 rpm for 30 min to achieve phase separation. The final Pt concentration in the aqueous phase was determined again by ICP-MS. The logarithm of the ratio of Pt concentrations in the organic and aqueous phases was calculated to determine the logP values. All experiments were done in duplicate.

A375 melanoma cells [10] = assay: Cellular accumulation of Pt (GF-AAS); assay type: cell-based, human
[11] = test system: nuclear DNA of A375 cells; assay: Nuclear DNA platination (GF-AAS); assay type: cell-based, human; details: A375, 5 μM, 24 h
Method: It is well known that the main cellular target of platinum complexes is the DNA, and platination of nuclear DNA is a critical step in triggering the death of cancer cells by platinum-based drugs. On this basis, the amount of platinum bound to nuclear DNA was also assessed in A375 cells treated with the tested Pt(IV) complexes. Cells were treated for 24 h with 5 μM of the tested complexes, the nuclear DNA was isolated and the amount of Pt in each sample was determined by means of GF-AAS analysis. The results expressed as pg Pt/ng DNA are depicted in Fig. 7. […] In particular, 1P led to a roughly 60-fold higher DNA platination level with respect to cisplatin.
A375 cells (3 × 10^6) were seeded in 10 cm Petri dishes in 10 mL of culture medium. Subsequently, cells were treated with the tested complexes (5 μM) for 24 h. The DNA was extracted and purified by a commercial spin column quantification kit (Qiagen DNeasy Blood and Tissue Kit). Only highly purified samples (A260/A230 ≅ 1.8 and […]) were included for analysis to avoid any artifacts. The samples were completely dried and re-dissolved in 200 μL of Milli-Q water (18.2 MΩ) for at least 20 min at 65 °C in a shaking thermo-mixer, mineralized and analyzed for total Pt content by GF-AAS as described above.

[12] = test system: 2008 ovarian cancer cells; assay: MTT cytotoxicity test, cisplatin-sensitive 2008; assay type: cell-based, human; details: 2008 cisplatin-sensitive, 72 h, ± S.D.
Method: The cytotoxic properties of the complexes were also evaluated in a pair of tumor cell lines suitably selected for their sensitivity and resistance to cisplatin (adenocarcinoma cells 2008/C13^*). Cross-resistance profiles were evaluated by means of the resistance factor (RF), defined as the ratio between IC50 values calculated for the resistant cells and those obtained with the sensitive ones (Table 2). The phenomenon of cisplatin resistance is multifactorial in nature. Nevertheless, the main molecular mechanisms involved in drug resistance in C13* cancer cells have largely been identified. Indeed, in this cell line resistance is correlated to high cellular glutathione and thioredoxin reductase levels, reduced cellular drug uptake and enhanced repair of DNA damage. […] The RF values calculated for all derivatives were six- to nine-fold lower than that of cisplatin, clearly indicating the absence of cross-resistance.
as §3
Triplicate cultures were established for each treatment.

O=C(O)CCc1c[nH]c2ccccc12 [IPA, indole-3-propionic acid, reference compound]
cytotoxic effect (in words) ([1]; free ligands): did not elicit any significant cytotoxic effect
IC50 ([2]; Homo sapiens): > 50 µM
IC50 ([3]; Homo sapiens, A-431, A431, 72 h): > 50 µM
IC50 ([4]; Homo sapiens): > 50 µM
IC50 ([5]; Homo sapiens, BXPC-3): > 50 µM
ROS production (in words) (A375 cells): no effect on cellular basal ROS levels
IC50 ([6]; Homo sapiens, MCF7, MCF-7, 72 h): > 50 µM
IC50 (A375 melanoma cells [7]; Homo sapiens, A-375, A375, 72 h): > 50 µM

[NH2][Pt]([NH2])([Cl])([Cl])([O]C(=O)CCC(=O)O)[O]C(=O)CCc1c[nH]c2ccccc12 [Complex 4P]
IC50 [8]: > 50 µM
Log P (octanol/water) [9]: −0.100 ± 0.05
IC50 [1]: 30.4 µM
IC50 ([2]; MTT, ± S.D.): 11.8 ± 1.06 µM
cellular platinum accumulation (in words) (A375 melanoma cells [10]; A375, 1.5 and 3 μM, 6 and 24 h): lowest platinum accumulation
cellular uptake level, times lower than cisplatin (A375 melanoma cells [10]; A375, GF-AAS): about 7
IC50 ([3]; A431, 72 h): 29.2 ± 4.19 µM
DNA platination (in words) [11]: least effective
IC50 [4]: 42 ± 1.92 µM
IC50 [5]: > 50 µM
IC50 [12]: > 50 µM
IC50 ([6]; MCF-7, 72 h): 40.56 ± 0.08 µM
IC50 (A375 melanoma cells [7]; A375, 72 h): 8.66 ± 4.03 µM

N.N.[Cl][Pt][Cl] [cisplatin]
RF (resistance factor) [8]: 10.5
IC50 [1]: 8.33 µM
IC50 ([2]; MTT, ± S.D.): 12.6 ± 0.81 µM
IC50 ([3]; A431, 72 h): 1.96 ± 0.84 µM
IC50 [4]: 15.5 ± 2.48 µM
IC50 [5]: 10.2 ± 1.65 µM
IC50 [12]: 2.26 ± 1.06 µM
IC50 ([6]; MCF-7, 72 h): 7.6 ± 2.96 µM
IC50 (A375 melanoma cells [7]; A375, 72 h): 2.06 ± 1.01 µM

N.N.O=C(Cc1c[nH]c2ccccc12)[O][Pt]([Cl])([Cl])[O]C(=O)Cc1c[nH]c2ccccc12 [Complex 2A]
IC50 [8]: 3.44 ± 0.59 µM
RF (resistance factor) [8]: 0.3
Log P (octanol/water) [9]: −0.068 ± 0.07
IC50 ([2]; MTT, ± S.D.): 3.75 ± 1.31 µM
IC50 ([3]; A431, 72 h): 13.3 ± 0.84 µM
IC50 [4]: 25.2 ± 0.89 µM
IC50 [5]: 3.32 ± 0.21 µM
IC50 [12]: 11 ± 2.14 µM
ROS production (in words) (A375 cells): less effective compared to the positive control
IC50 ([6]; MCF-7, 72 h): 3.7 ± 0.29 µM
IC50 (A375 melanoma cells [7]; A375, 72 h): 1.85 ± 0.23 µM

N.N.O=C(CCc1c[nH]c2ccccc12)[O][Pt]([Cl])([Cl])[O]C(=O)CCc1c[nH]c2ccccc12 [Complex 2P]
IC50 [8]: 2.91 ± 0.64 µM
RF (resistance factor) [8]: 0.4
Log P (octanol/water) [9]: −0.051 ± 0.06
IC50 [1]: 4.9 µM
IC50 ([2]; MTT, ± S.D.): 2.87 ± 1.59 µM
IC50 ([3]; A431, 72 h): 3 ± 0.35 µM
IC50 [4]: 14 ± 1.56 µM
IC50 [5]: 2.56 ± 0.65 µM
IC50 [12]: 8.37 ± 2.12 µM
IC50 ([6]; MCF-7, 72 h): 5.54 ± 0.67 µM
IC50 (A375 melanoma cells [7]; A375, 72 h): 1.35 ± 0.75 µM

CC(=O)[O][Pt]([NH2])([NH2])([Cl])([Cl])[O]C(=O)CCc1c[nH]c2ccccc12 [Complex 5P]
IC50 [8]: 21.9 ± 2.48 µM
RF (resistance factor) [8]: 1.2
Log P (octanol/water) [9]: −0.080 ± 0.04
IC50 [1]: 11.1 µM
IC50 ([2]; MTT, ± S.D.): 3.62 ± 0.18 µM
IC50 ([3]; A431, 72 h): 5.35 ± 2.11 µM
DNA platination (in words) [11]: least effective
IC50 [4]: 14.03 ± 0.14 µM
IC50 [5]: 19.5 ± 0.68 µM
IC50 [12]: 18 ± 1.33 µM
IC50 ([6]; MCF-7, 72 h): 21.01 ± 0.06 µM
IC50 (A375 melanoma cells [7]; A375, 72 h): 3.15 ± 0.02 µM
